Columns and labels:
CDK2 = CDK2 (Homo sapiens (Human), UniProt P24941); assay: CDK2 NanoBiT assay (HiBiT-tagged CDK2 degradation); type: cell-based; conditions: HEK293, HEK293 clonal line, C-terminal HiBiT tag on CDK2, LgBiT; 24 hours
Procedure: Example 145. NanoBiT Assay
A HEK293 clonal line with a CRISPR knock-in C-terminal HiBiT tag on CDK2 and stably expressing LgBiT protein was obtained from Promega (Madison, WI). Cells were plated at 5000 cells per well using Multiflo (BioTek) in 384-well white solid bottom plates (Corning, 3570BC) in 25 ul volume in DMEM media (DMEM, high glucose, HEPES, no phenol red (ThermoFisher Scientific, 21063029)) containing 10% FBS (Corning, 35-075-CV), 1% Peniciliin/Streptomycin ((ThermoFisher Scientific, 15140-122), and 1% Endurazine (Nano-Glo Endurazine Live Cell Substrate (Promega, N2571)). Cells were incubated for 16 hours at 37 C, 5% CO2. 75 nL of a compound at 30 μM were dosed into the plate using an Echo® 650 liquid handler (Labcyte). Cells were incubated at 37° C., 5% CO2 for 24 hours and then signal was read on a Pherastar FSX using “LUM plus” optic module.
Analysis was performed in Scinamic (Scinamic, Cambridge, MA). Luminescence response (R) was calculated by the formula: response=100*(S−N)/(P−N) where S is the signal of the well, N and P the mean negative and positive control values respectively of the same plate. The luminescence response was then fitted in Scinamic using a 3-parameter agonist logistic fit (hillslope=1, EC50>0, top/bottom unconstrained).

CRBN-DDB1 = CRBN-DDB1 (Homo sapiens (Human), UniProt Q96SW2); assay: CRBN HTRF assay (Cy5-Thalidomide probe displacement); type: binding; conditions: CRBN-DDB1 2.5 nM, Cy5-Thalidomide 100 nM, 30 min; Ki from geometric mean IC50 by Cheng-Prusoff
Sequence of CRBN-DDB1 (Q96SW2 whole entry): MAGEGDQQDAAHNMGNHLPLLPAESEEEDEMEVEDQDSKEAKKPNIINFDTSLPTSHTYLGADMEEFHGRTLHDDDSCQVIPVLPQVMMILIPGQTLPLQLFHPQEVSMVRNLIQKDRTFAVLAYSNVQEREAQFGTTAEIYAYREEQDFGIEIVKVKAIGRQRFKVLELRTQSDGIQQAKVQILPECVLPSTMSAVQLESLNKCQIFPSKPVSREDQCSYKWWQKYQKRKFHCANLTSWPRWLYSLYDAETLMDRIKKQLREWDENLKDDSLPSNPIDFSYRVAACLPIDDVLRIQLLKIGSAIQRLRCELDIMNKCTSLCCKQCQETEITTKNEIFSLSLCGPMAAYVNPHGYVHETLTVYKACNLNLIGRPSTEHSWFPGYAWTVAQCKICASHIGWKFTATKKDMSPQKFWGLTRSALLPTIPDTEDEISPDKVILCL
Sequence of CRBN-DDB1 (Q16531 whole entry partner): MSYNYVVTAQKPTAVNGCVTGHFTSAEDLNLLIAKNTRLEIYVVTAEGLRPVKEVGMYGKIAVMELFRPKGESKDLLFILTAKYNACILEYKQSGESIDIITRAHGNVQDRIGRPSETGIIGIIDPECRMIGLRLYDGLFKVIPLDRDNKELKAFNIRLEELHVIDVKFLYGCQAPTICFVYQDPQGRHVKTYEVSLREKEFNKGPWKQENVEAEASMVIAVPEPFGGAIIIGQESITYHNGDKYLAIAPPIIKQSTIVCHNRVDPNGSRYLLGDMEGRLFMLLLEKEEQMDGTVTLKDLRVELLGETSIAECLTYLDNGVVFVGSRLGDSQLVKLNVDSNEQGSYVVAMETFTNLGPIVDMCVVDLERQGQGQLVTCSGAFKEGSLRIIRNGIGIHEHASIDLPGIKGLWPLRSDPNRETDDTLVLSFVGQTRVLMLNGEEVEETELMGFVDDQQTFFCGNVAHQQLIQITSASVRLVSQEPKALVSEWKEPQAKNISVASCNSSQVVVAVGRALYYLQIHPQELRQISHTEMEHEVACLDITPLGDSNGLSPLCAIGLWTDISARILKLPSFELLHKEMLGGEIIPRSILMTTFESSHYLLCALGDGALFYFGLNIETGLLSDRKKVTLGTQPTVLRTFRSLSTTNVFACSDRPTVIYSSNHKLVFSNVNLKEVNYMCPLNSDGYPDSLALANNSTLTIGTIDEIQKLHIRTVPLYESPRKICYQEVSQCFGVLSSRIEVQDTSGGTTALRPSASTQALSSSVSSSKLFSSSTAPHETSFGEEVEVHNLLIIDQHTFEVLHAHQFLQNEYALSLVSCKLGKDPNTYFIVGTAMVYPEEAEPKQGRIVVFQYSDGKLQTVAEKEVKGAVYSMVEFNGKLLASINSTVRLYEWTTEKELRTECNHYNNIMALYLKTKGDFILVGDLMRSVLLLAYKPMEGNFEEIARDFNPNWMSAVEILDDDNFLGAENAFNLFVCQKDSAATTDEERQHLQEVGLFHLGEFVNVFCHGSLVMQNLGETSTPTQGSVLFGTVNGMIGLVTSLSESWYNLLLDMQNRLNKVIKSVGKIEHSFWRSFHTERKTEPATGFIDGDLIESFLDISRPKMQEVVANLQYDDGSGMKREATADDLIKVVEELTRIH
Procedure: Compound activity was monitored in a Homogenous Time-Resolved Fluorescence (HTRF) assay using 1-[5-({2-[2-(2-{[2-(2,6-dioxopiperidin-3-yl)-1,3-dioxo-2,3-dihydro-1H-isoindol-4-yl]oxy}acetamido)ethoxy]ethyl}carbamoyl)pentyl]-3,3-dimethyl-2-[(1E,3E)-5-[(2E)-1,3,3-trimethyl-5-sulfo-2,3-dihydro-1H-indol-2-ylidene]penta-1,3-dien-1-yl]-3H-indol-1-ium-5-sulfonate as a fluorescent probe. Biochemical assays were conducted in Greiner white 384 well HiBase plates (Cat. No 784075-25) in 10 μL total volume. A one pot detection solution of CRBN-DDB1 (2.5 nM), Anti-His Terbium Cryptate Gold (1×, PerkinElmer Cat. #: 61HI2TLB), and Cy5-Thalidomide (100 nM, Tenova Cat.: T52461) was prepared in 20 mM HEPES, 20 mM NaCl, 0.2 mM TCEP, 0.2 mM EDTA, and 0.005% Tween20 was dispensed to each assay plate. Compounds were stored in dry, ambient temperatures at 10 mM. A 10-point, 1:3 dilution series was prepared from 10 mM stock concentrations in Echo-compatible LDV plates. 10 nL of each compound dilution series was dispensed into assays wells using an Echo 650 (Labcyte inc. USA). 10 nL of 10 mM Lenalidomide was transferred into the active-control wells for the assay and 10 nL of DMSO was transferred into the neutral-control wells. The assay was then allowed to incubate for 30 min at ambient temperature after transferring compound. Plate measurements were taken on a Pherastar FSX (BMG Labtech, Germany) using the HTRF Red filter (Ex. 337 nm, em1: 620 nm, em2: 665 nm) (Flashes: 50, Integration time: 60-400 us, Z-height: 10 mm, Ratio-multiplier: 10,000). The HTRF signal was then subsequently normalized to the neutral and active controls. Analysis and IC50 values were derived using KNIME analytics (KNIME Zurich) transformation and fitting within Collaborative Drug Discovery (Collaborative Drug Discovery USA). Ki was derived from the geometric mean of the IC50 values using the Cheng-Prustoff transformation.

Compound | Dmax (CDK2) | Ki (CRBN-DDB1)
CN(C)C(=O)N1CCC(OC(=O)NC2CN(c3cc(F)c(C4CCC(=O)NC4=O)c(F)c3)C2)CC1 (stereo not drawn) [Compound 19, 1-(dimethylcarbamoyl)piperidin-4-yl (1-(4-(2,6-dioxopiperidin-3-yl)-3,5-difluorophenyl)azetidin-3-yl)carbamate] | 10 to 50% | ≤ 100 nM
N#Cc1ccc(C(=O)N2CC(OC(=O)NC3CN(c4cc(F)c(C5CCC(=O)NC5=O)c(F)c4)C3)C2)cc1 (stereo not drawn) [Compound 20, 1-(4-cyanobenzoyl)azetidin-3-yl (1-(4-(2,6-dioxopiperidin-3-yl)-3,5-difluorophenyl)azetidin-3-yl)carbamate] | 10 to 50% | ≤ 100 nM
COc1ccc(C(=O)N2CC(OC(=O)NC3CN(c4cc(F)c(C5CCC(=O)NC5=O)c(F)c4)C3)C2)cc1 (stereo not drawn) [Compound 21, 1-(4-methoxybenzoyl)azetidin-3-yl (1-(4-(2,6-dioxopiperidin-3-yl)-3,5-difluorophenyl)azetidin-3-yl)carbamate] | 10 to 50% | ≤ 100 nM
O=C1CCC(c2c(F)cc(N3CC(NC(=O)OC4CN(C(=O)c5ccc(F)cc5)C4)C3)cc2F)C(=O)N1 (stereo not drawn) [Compound 22, 1-(4-fluorobenzoyl)azetidin-3-yl (1-(4-(2,6-dioxopiperidin-3-yl)-3,5-difluorophenyl)azetidin-3-yl)carbamate] | 50 to 80% | 100 to 1000 nM
Cc1ccc(C(=O)N2CC(OC(=O)NC3CN(c4cc(F)c(C5CCC(=O)NC5=O)c(F)c4)C3)C2)cc1 (stereo not drawn) [Compound 23, 1-(4-methylbenzoyl)azetidin-3-yl (1-(4-(2,6-dioxopiperidin-3-yl)-3,5-difluorophenyl)azetidin-3-yl)carbamate] | 50 to 80% | ≤ 100 nM
O=C1CCC(c2c(F)cc(N3CC(NC(=O)OC4CN(C(=O)c5ccccc5)C4)C3)cc2F)C(=O)N1 (stereo not drawn) [Compound 24, 1-benzoylazetidin-3-yl (1-(4-(2,6-dioxopiperidin-3-yl)-3,5-difluorophenyl)azetidin-3-yl)carbamate] | 10 to 50% | ≤ 100 nM
CN(C(=O)N1CC[C@@H](OC(=O)NC2CN(c3cc(F)c(C4CCC(=O)NC4=O)c(F)c3)C2)C1)C1CC1 (stereo partly drawn) [Compound 25, (R)-1-(cyclopropyl(methyl)carbamoyl)pyrrolidin-3-yl (1-(4-(2,6-dioxopiperidin-3-yl)-3,5-difluorophenyl)azetidin-3-yl)carbamate] | 10 to 50% | ≤ 100 nM
O=C1CCC(c2c(F)cc(N3CC(NC(=O)OC4CN(C(=O)c5ccc(Cl)cc5)C4)C3)cc2F)C(=O)N1 (stereo not drawn) [Compound 26, 1-(4-chlorobenzoyl)azetidin-3-yl (1-(4-(2,6-dioxopiperidin-3-yl)-3,5-difluorophenyl)azetidin-3-yl)carbamate] | 50 to 80% | ≤ 100 nM
CN(C)C(=O)N1CC[C@H](OC(=O)NC2CN(c3cc(F)c(C4CCC(=O)NC4=O)c(F)c3)C2)C1 (stereo partly drawn) [Compound 27, (S)-1-(dimethylcarbamoyl)pyrrolidin-3-yl (1-(4-(2,6-dioxopiperidin-3-yl)-3,5-difluorophenyl)azetidin-3-yl)carbamate] | 10 to 50% | ≤ 100 nM
O=C1CCC(c2c(Cl)cc(N3CC(NC(=O)OCC4CC5(CCC5)C4)C3)cc2Cl)C(=O)N1 (stereo not drawn) [Compound 28, spiro[3.3]heptan-2-ylmethyl (1-(3,5-dichloro-4-(2,6-dioxopiperidin-3-yl)phenyl)azetidin-3-yl)carbamate] | > 80% | ≤ 100 nM
Cc1cccnc1N1CC(OC(=O)NC2CN(c3cc(F)c(C4CCC(=O)NC4=O)c(F)c3)C2)C1 (stereo not drawn) [Compound 29, 1-(3-methylpyridin-2-yl)azetidin-3-yl (1-(4-(2,6-dioxopiperidin-3-yl)-3,5-difluorophenyl)azetidin-3-yl)carbamate] | 50 to 80% | ≤ 100 nM
O=C1CCC(c2c(F)cc(N3CC(NC(=O)OC4CN(C(=O)N5CCC5)C4)C3)cc2F)C(=O)N1 (stereo not drawn) [Compound 30, 1-(azetidine-1-carbonyl)azetidin-3-yl (1-(4-(2,6-dioxopiperidin-3-yl)-3,5-difluorophenyl)azetidin-3-yl)carbamate] | 50 to 80% | ≤ 100 nM

From US20250263395A1, “COMPOUNDS THAT MEDIATE PROTEIN DEGRADATION AND METHODS OF USE THEREOF” (Monte Rosa Therapeutics AG, priority 2022, published 2025)
